We go through four molecules from patent publication US20260294922A1, “Inhibitors of JUN N-Terminal Kinases (JNK1, JNK2, and/or JNK3) and Mitogen-Activated Protein Kinases (MAPK8, MAPK9, and/or MAPK10) and Methods of Using Same” (Baylor College of Medicine, priority 2023, published 2026).

One data set addresses T1, CSNK1E (Homo sapiens, UniProt P49674).
T1 construct: purchased ThermoFisher (SelectScreen)
As to the kind of experiment: ThermoFisher SelectScreen, CSNK1E. The data set is classed as binding.

Data set [1] deals with T2, JNK3 (Homo sapiens, UniProt P53779). Kind of data set: ThermoFisher SelectScreen, JNK3. The data set is classed as binding.
For the next data set, the target named is T3, MEK5 (Homo sapiens, UniProt Q13163).
T3 construct: purchased ThermoFisher (SelectScreen, outsourced service)
T3 sequence (Q13163 1-448): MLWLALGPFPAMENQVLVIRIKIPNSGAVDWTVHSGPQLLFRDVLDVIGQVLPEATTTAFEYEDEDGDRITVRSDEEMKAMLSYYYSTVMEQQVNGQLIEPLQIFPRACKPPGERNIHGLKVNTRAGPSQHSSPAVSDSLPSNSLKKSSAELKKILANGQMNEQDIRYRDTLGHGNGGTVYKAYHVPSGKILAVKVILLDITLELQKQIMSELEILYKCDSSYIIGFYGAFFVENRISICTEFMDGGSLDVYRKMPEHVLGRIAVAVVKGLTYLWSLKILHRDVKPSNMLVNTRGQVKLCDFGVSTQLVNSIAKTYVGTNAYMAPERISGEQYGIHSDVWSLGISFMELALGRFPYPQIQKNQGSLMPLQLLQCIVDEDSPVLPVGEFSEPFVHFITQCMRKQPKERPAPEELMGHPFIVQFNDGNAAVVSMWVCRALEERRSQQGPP
Kind of data set: ThermoFisher SelectScreen, MEK5. The data set is classed as binding. To be noted: Table 4. The method, then: (§1) To mitigate violation of the linear initial velocity principle, which is a problem in end-point assays when doing dose-responses, the enzyme concentration was carefully optimized, in a total assay volume of 25 μL. The assay was performed using 10 μM ATP, 0.02% Tween-20, kinase buffer from Cell Signaling (#9802) in white 384-well plates. The kinase reaction was done for 30 or 60 min at 30° C., and detection of leftover ATP was measured according to Promega's protocol. […] Fractional activities were obtained from normalized data. Non-linear regression (GraphPad Prism7) and a modified Morrison equation for tight binding was used to determine apparent Ki values for inhibitors, assuming no particular mode of inhibition. An orthogonal binding assay (LanthaScreen) was outsourced to ThermoFisher Scientific's SelectScreen Services to determine IC50 values.
(§2) One of the earliest compounds to be synthesized with favorable enzymatic activity towards JNK1 and JNK3 was CDD-2346. A KINOMEscan was performed for CDD-2346 to establish whether the selectivity of this chemical scaffold was suitable or required optimization. […] To confirm that the activity against each kinase was a true result and not a false positive, CDD-2346 was evaluated in kinase assays using ThermoFisher SelectScreen platform. The results from these assays are provided herein (Table 4). The important innovative steps described are the optimization of selectivity a) for JNK isoforms; b) for kinases considered “in-pathway”; and c) to avoid kinases considered “out-of-pathway”.

A further data set has as its target T4, MYLK (Homo sapiens, UniProt Q15746).
T4 construct: purchased ThermoFisher (SelectScreen, outsourced service)
Kind of data set: ThermoFisher SelectScreen, MYLK. The format is binding. To be noted: Table 4. The method, then: as §1, §2

The next data set has as its target T5, PIP5K1C (Homo sapiens, UniProt O60331).
T5 construct: purchased ThermoFisher (SelectScreen, outsourced service)
As to the kind of experiment: ThermoFisher SelectScreen, PIP5K1C. To be noted: Table 4. The format is binding. The method, then: as §1, §2

A further data set concerns the target T6, DYRK2 (Homo sapiens, UniProt Q92630).
T6 construct: purchased ThermoFisher (SelectScreen)
T6 sequence (Q92630 1-601): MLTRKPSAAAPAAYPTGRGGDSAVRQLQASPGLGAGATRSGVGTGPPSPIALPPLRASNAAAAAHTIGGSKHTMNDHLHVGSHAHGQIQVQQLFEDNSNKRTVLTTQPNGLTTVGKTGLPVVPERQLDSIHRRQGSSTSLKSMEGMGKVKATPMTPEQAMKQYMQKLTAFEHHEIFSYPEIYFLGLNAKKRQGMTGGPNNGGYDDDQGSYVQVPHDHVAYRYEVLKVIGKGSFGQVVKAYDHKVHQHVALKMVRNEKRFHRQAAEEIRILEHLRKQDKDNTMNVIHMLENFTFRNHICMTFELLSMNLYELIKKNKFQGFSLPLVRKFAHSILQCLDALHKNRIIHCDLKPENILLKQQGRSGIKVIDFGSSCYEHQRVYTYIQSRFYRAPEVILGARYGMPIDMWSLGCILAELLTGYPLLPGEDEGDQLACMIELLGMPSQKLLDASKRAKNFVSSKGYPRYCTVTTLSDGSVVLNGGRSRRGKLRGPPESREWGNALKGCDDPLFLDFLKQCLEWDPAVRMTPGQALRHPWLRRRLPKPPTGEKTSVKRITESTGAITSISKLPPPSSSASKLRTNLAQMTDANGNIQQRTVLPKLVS
As to the kind of experiment: ThermoFisher SelectScreen, DYRK2. The data set is classed as binding. To be noted: Table 4. As for the experimental part: as §1, §2

In the next data set the target is T7, CSNK1D (Homo sapiens, UniProt P48730).
T7 construct: purchased ThermoFisher (SelectScreen)
As to the kind of experiment: ThermoFisher SelectScreen, CSNK1D. The data set is classed as binding.

For another data set, the target named is JNK1 (Homo sapiens, UniProt P45983). Kind of data set: Promega NanoBRET intracellular target engagement (tracer K10 displacement), JNK1. The data set is classed as cell-based.
Chain of JNK1 (P45983 whole entry): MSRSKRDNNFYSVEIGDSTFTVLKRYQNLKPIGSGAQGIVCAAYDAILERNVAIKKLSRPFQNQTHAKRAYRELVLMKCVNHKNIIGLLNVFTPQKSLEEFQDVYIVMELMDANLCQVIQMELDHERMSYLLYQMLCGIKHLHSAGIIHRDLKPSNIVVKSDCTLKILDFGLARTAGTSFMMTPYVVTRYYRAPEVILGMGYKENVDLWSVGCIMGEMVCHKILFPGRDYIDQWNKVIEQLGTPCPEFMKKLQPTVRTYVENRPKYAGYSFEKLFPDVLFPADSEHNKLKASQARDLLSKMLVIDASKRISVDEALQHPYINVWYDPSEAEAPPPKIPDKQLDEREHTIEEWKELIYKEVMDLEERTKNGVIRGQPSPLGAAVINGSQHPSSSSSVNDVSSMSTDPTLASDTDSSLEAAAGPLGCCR
The nature of data set [2]: In vitro metabolism in mouse liver microsomes. To be noted: mouse, microsomes. As for the experimental part: The target product profile seeks to deliver JNK inhibitor as a once daily oral administration. To prioritize compounds for further development, in vitro metabolism of several CDD JNK inhibitors were determined to approximate the plasma half-life and the rate of metabolism of the compounds in vivo.
(In general: Liver microsomes are vesicles of endoplasmic reticulum, rich in cytochrome P450 enzymes.)

Data set [3] has as its target T8, JNK2 (Homo sapiens, UniProt P45984). As to the kind of experiment: Promega NanoBRET intracellular target engagement (tracer K10 displacement), JNK2. The format is cell-based. Background: Bioluminescence resonance energy transfer reports proximity on the nanometre scale.
The target in a further data set is T9, hVPS34 (Homo sapiens, UniProt Q8NEB9).
T9 construct: purchased ThermoFisher (SelectScreen, outsourced service)
T9 sequence (Q8NEB9 whole entry): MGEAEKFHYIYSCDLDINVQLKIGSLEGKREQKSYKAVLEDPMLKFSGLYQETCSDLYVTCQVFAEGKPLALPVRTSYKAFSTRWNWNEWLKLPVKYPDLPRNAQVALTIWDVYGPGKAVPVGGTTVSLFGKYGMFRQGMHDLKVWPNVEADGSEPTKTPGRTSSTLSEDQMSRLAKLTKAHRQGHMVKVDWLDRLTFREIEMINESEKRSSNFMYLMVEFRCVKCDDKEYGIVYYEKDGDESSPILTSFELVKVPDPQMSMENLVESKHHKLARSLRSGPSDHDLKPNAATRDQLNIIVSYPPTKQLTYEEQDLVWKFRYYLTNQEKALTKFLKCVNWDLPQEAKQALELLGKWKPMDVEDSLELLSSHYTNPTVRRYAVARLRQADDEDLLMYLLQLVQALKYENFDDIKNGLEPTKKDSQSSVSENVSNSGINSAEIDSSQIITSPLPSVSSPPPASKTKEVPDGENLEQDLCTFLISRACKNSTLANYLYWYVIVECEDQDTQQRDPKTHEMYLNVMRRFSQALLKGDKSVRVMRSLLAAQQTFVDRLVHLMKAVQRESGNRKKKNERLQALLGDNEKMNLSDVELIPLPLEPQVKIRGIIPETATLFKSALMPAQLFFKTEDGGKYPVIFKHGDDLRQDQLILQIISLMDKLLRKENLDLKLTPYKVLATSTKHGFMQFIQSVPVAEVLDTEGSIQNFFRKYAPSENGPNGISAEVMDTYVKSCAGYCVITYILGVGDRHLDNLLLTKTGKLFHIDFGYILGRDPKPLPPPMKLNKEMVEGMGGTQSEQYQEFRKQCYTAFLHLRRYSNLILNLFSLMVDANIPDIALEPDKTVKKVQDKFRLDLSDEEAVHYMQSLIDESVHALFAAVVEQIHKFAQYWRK
Kind of data set: ThermoFisher SelectScreen, hVPS34. The format is binding. The conditions noted are these: Table 4. As for the experimental part: as §1, §2

Data set [4] deals with T2, JNK3. As to the kind of experiment: Promega NanoBRET intracellular target engagement (tracer K10 displacement), JNK3. The format is cell-based.
Data set [5] addresses T8, JNK2. As to the kind of experiment: JNK2 kinase (intrinsic ATPase, Kinase-Glo) assay. The conditions noted are these: Table 3a; read-out: Kd JNK2. The format is biochemical. A general note: In Kinase-Glo more light means more ATP remaining.
The next data set concerns the target T10, CSNK1A1 (Homo sapiens, UniProt P48729).
T10 construct: purchased ThermoFisher (SelectScreen)
As to the kind of experiment: ThermoFisher SelectScreen, CSNK1A1. The data set is classed as binding. To be noted: Table 4. As for the experimental part:
as §1, §2

The target in another data set is T11, CSNK1G1 (Homo sapiens, UniProt Q9HCP0).
T11 construct: purchased ThermoFisher (SelectScreen)
Kind of data set: ThermoFisher SelectScreen, CSNK1G1. The data set is classed as binding. As for the experimental part:
as §1, §2
No activity of CDD-2728 was detected for Atypical, Mutant, or Lipid kinases. To confirm CDD-2728 inhibition results in the KINOMEscan analysis, individual binding assays were performed on the kinases to which CDD-2728 bound using ThermoFisher SelectScreen.

Each structure is given as a SMILES string. Converted amounts (≈) assume the structure as drawn.

T8 sequence (P45984 whole entry): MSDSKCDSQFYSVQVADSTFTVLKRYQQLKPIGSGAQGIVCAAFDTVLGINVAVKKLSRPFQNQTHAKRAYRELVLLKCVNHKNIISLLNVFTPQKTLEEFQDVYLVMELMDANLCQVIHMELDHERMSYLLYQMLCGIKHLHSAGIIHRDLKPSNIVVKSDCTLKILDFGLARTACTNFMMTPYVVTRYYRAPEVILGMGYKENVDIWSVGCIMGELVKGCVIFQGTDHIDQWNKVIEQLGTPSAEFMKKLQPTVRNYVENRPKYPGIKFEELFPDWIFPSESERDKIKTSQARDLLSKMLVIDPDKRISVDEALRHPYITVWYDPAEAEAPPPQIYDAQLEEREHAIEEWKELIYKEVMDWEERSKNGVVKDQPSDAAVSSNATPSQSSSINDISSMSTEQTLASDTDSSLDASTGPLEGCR
T5 sequence (O60331 whole entry): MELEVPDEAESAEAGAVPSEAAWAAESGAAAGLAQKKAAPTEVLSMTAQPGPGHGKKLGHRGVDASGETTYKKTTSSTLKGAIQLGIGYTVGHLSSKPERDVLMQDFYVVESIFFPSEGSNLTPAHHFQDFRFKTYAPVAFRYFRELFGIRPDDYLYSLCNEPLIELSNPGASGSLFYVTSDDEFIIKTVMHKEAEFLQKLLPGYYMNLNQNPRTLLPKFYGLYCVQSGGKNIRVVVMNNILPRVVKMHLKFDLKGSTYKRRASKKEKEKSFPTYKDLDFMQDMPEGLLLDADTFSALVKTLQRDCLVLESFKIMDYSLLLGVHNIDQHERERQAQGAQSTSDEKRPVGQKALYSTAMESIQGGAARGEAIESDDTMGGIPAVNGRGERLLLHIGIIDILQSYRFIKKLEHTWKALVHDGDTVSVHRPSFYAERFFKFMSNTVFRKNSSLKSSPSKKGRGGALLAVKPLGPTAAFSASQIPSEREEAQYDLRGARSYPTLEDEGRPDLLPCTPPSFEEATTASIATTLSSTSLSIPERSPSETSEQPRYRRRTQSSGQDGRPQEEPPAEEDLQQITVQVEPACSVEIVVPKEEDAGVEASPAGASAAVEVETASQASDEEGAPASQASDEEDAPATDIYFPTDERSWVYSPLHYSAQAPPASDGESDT
T4 sequence (Q15746 whole entry): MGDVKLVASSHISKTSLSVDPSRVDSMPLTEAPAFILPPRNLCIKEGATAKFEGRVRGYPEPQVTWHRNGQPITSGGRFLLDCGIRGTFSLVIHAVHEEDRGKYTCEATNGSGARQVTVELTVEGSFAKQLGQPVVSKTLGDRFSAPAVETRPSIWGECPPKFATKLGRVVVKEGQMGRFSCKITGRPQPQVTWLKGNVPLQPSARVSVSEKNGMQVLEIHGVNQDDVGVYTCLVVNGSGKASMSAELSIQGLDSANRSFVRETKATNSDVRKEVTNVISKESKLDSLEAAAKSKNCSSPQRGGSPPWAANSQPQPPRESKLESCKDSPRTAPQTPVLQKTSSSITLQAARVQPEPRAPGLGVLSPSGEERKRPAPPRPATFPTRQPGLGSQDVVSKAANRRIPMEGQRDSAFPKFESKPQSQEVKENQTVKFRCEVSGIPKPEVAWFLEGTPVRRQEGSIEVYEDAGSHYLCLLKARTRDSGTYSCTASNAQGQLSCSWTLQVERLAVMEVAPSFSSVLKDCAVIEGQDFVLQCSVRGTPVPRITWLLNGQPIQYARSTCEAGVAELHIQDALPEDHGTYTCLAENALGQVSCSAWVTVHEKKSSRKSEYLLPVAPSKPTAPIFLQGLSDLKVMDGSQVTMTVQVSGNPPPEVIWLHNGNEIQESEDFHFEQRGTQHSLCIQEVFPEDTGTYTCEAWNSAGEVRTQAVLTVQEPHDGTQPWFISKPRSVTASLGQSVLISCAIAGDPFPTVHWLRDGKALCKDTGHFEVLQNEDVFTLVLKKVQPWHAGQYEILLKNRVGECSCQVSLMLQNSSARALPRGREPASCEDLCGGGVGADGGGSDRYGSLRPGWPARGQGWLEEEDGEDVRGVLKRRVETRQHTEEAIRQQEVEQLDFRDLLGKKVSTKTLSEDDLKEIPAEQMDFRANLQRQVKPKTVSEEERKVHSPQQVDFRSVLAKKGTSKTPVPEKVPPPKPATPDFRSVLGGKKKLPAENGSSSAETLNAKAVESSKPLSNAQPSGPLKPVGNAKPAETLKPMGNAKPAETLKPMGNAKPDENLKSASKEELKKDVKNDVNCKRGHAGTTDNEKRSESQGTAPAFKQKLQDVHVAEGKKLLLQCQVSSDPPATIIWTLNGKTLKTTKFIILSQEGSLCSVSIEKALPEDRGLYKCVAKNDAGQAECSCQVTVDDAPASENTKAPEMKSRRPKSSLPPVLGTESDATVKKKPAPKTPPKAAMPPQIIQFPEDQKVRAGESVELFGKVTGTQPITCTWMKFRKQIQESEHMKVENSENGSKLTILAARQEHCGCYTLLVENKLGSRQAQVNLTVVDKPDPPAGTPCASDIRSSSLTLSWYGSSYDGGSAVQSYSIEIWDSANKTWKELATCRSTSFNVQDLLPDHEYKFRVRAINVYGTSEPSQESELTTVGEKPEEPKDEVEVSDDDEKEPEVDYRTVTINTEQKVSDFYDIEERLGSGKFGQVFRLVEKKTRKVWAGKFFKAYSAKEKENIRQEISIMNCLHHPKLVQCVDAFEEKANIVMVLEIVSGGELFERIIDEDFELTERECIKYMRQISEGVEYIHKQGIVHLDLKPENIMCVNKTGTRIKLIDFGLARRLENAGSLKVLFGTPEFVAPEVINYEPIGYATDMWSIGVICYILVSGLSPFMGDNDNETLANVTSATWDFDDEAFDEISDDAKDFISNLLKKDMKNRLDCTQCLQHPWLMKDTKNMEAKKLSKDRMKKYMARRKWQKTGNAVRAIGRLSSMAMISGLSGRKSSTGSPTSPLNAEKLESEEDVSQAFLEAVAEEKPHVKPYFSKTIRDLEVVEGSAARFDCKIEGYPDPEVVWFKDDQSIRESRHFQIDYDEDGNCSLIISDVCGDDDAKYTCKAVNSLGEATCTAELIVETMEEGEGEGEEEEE
T1 sequence (P49674 whole entry): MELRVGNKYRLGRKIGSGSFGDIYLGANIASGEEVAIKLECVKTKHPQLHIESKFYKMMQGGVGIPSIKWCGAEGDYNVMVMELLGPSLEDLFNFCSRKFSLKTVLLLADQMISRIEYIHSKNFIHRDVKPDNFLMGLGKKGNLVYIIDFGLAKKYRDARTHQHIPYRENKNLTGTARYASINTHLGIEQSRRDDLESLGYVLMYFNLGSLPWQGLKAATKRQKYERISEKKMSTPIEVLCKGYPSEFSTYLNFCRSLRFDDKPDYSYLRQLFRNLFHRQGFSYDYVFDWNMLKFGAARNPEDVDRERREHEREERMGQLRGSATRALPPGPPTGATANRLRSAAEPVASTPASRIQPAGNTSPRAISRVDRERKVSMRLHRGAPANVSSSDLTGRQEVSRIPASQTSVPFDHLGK
T10 sequence (P48729 whole entry): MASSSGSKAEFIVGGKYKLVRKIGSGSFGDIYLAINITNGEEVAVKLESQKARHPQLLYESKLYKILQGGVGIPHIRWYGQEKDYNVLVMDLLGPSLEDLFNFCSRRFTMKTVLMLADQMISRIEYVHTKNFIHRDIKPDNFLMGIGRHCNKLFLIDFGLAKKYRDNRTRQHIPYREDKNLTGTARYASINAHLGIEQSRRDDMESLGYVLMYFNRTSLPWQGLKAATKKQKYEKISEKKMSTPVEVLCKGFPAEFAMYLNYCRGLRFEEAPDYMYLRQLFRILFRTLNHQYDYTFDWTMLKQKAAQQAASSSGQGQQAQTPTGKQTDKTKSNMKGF

In general, Kd refers to the concentration at which binding is half-saturated. Usually solubility stands for the concentration that dissolves in the medium under given conditions. A lower solubility goes with a poorly soluble substance. One may read the IC50 as the concentration at which inhibition is half-maximal. Broadly, the half-life is how long it takes for the measured level to halve. On to `O=C(Nc1ccc(F)cc1)c1ccn2ncc(-c3cnc4[nH]ccc4c3)c2c1` [CDD-2486, N-(4-fluorophenyl)-3-(1H-pyrrolo[2,3-b]pyridin-5-yl)pyrazolo[1,5-a]pyridine-5-carboxamide], for which the Kd at CSNK1E is 235 nM; on JNK3 [1], 4.34 nM; at MEK5 it was 4040 nM; on MYLK it was 942 nM; on PIP5K1C it was 1150 nM; at DYRK2 it was 288 nM. Further, the Kd amounted to 2350 nM on CSNK1D; 1140 nM on hVPS34; 0.67 ± 0.09 nM at JNK2 [5]; 41300 nM on CSNK1A1; 14400 nM on CSNK1G1 (Table 4). Also, the concentration in solution in the data set “Solubility” (solubility) was 0.3 µM (≈ 0.111 µg/mL). Moreover, the IC50 at JNK1 came out at 770 nM; at JNK2 [3], 442 nM; at JNK3 [4] it was 468 nM. In [2], this molecule displayed a half-life of 10.8 min.
On to `CNCc1ccc(NC(=O)c2ccn3ncc(-c4cnc5[nH]ccc5c4)c3c2)cc1` [CDD-2346, N-(4-((methylamino)methyl)phenyl)-3-(1H-pyrrolo[2,3-b]pyridin-5-yl)pyrazolo[1,5-a]pyridine-5-carboxamide], for which the Kd on CSNK1E was found to be 48 nM; at JNK3 [1] it was 0.65 nM; on MEK5, 579 nM; at MYLK, 442 nM; at PIP5K1C, 811 nM; at DYRK2, 78 nM. Further, the equilibrium dissociation constant (Kd) on CSNK1D worked out at 55 nM; at hVPS34, 109 nM; at JNK2 [5] it was 0.94 ± 0.22 nM; at CSNK1A1, 85 nM; at CSNK1G1 (Table 4), 133 nM. This molecule had a solubility in the data set “Solubility” of 167 µM (≈ 66.1 µg/mL). The IC50 on JNK1 was found to be 5100 nM; on JNK2 [3], 1700 nM; at JNK3 [4] it was 3000 nM. Further, the “inhibition of binding to JNK1, JNK2, and JNK3 relative to staurosporine” value on JNK1 (NanoBRET) is on record as “superior to staurosporine”. Also, in [2], the half-life amounted to 68.7 min.
For `CN(C)Cc1ccc(NC(=O)c2ccn3ncc(-c4cnc5[nH]ccc5c4)c3c2)cc1` [CDD-2482, N-(4-((dimethylamino)methyl)phenyl)-3-(1H-pyrrolo[2,3-b]pyridin-5-yl)pyrazolo[1,5-a]pyridine-5-carboxamide], the dissociation constant Kd on CSNK1E was 29 nM; on JNK3 [1], 0.45 nM; at MEK5, 547 nM; at MYLK it was 501 nM; on PIP5K1C, 13200 nM; on DYRK2 it was 48 nM. Moreover, the Kd at CSNK1D is 30 nM; at hVPS34, 255 nM; on JNK2 [5], 0.74 ± 0.09 nM; at CSNK1A1 it was 70.5 nM; at CSNK1G1 (Table 4) it was 52 nM. For the same molecule, in the data set “Solubility”, the concentration in solution (solubility) came to 176 µM (≈ 72.2 µg/mL). In addition, the half-life in [2] came to 16.6 min.
`CN(C)C(=O)c1cc(NC(=O)c2cc3c(-c4cnc5[nH]ccc5c4)cccc3s2)ccc1O` [CDD-2728, N-(3-(dimethylcarbamoyl)-4-hydroxyphenyl)-4-(1H-pyrrolo[2,3-b]pyridin-5-yl)benzo[b]thiophene-2-carboxamide]: the values for the Kd on CSNK1E, on CSNK1D and on CSNK1G1 (Table 5) were 1070 nM, 821 nM and 4400 nM, respectively. The molecule also displayed a solubility in “Solubility” of 19.4 µM (≈ 8.86 µg/mL). Further, the results for the IC50 at JNK1, on JNK2 [3] and at JNK3 [4] were 599 nM, 570 nM and 534 nM, respectively. In addition, on JNK1 (relative to CDD-2346), the “improvement of NanoBRET IC50 for JNK1 (CDD-2346/CDD-2728)” value worked out at 8.5 fold. In data set [2], this molecule registered a half-life of 85.2 min.
